Reference: paper PMC4782294, “ERK mediated upregulation of death receptor 5 overcomes the lack of p53 functionality in the diaminothiazole DAT1 induced apoptosis in colon cancer models: efficiency of DAT1 in Ras-Raf mutated cells” (Molecular Cancer, 2016)

What was measured:
HCT116 [1] = assay: MTT cytotoxicity assay; type: cell-based; details: Homo sapiens, HCT-116, HCT116, 48 h
Method: (§1) Cells were seeded in 96 well plates. At about70 % confluency, they were treated with different concentrations of drugs either individually or in combination. After 48 h, MTT assay was done (Mossmann 1983) and absorbance was measured at 570 nm (Biorad Microplate reader). Percentage viability was plotted against the respective concentrations of the drugs and half inhibitory concentration (IC50) was calculated with the non linear regression programme of Origin.

HCT116 p53 -/- = assay: MTT cytotoxicity assay; type: cell-based; details: Homo sapiens, HCT-116, 48 h
Method: as §1

SW 480 = assay: MTT cytotoxicity assay; type: cell-based; details: Homo sapiens, SW480, SW 480, 48 h
Method: as §1

HT 29 = assay: MTT cytotoxicity assay; type: cell-based; details: Homo sapiens, HT 29, 48 h
Method: as §1

SW 620 = assay: MTT cytotoxicity assay; type: cell-based; details: Homo sapiens, SW 620, 48 h
Method: as §1

caspase 8 = assay: Caspase 8 activation by western blotting; type: cell-based; details: cell lines irrespective of their p53 status
Method: (§2) Cells were grown to 70–80 % confluency in 60 mm culture dishes. After drug treatment, they were harvested and lysed. Protein samples from tissues were collected by homogenizing the tissue in the presence of lysis buffer, followed by centrifugation for 20 min. The protein samples were run in a 10–12 % gel and transferred on to a PVDF membrane. The membranes were probed with specific primary antibodies (1:1000) overnight followed by secondary antibodies conjugated with horse radish peroxidase/alkaline phosphatase (1:2000) for 1 hr at room temperature and were developed by chemiluminescence or alkaline phosphatase method.

HCT116 [2] = assay: DAPI staining for detection of apoptosis (chromatin condensation); type: cell-based
Method: (§3) The cells were grown on coverslips in 24 well plates and incubated with respective drug or inhibitor for 24 h. They were then washed with PBS, fixed with chilled methanol-EDTA for 10 min and rehydrated with PBS for 10 min at room temperature. Successively, the cells were treated with DAPI (0.5 μg/ml) for 2 min in the dark. The coverslips were then mounted on fluoromount G and viewed at 40X in the UV region using a fluorescence microscope (Olympus IX71).

Colo 320 DM [3] = assay: as above; type: cell-based; details: approximately 1.5 times the IC50 concentration, 24 h
Method: as §3

Caco2 = assay: as above; type: cell-based; details: Caco2, approximately 1.5 times the IC50 concentration, 24 h
Method: as §3

HCT116 p53 −/− = assay: as above; type: cell-based
Method: as §3

Swiss Albino mice [4] = assay: Acute toxicity study; type: in vivo; details: for Final weight: after 14 days; for Initial weight: before drug administration
Method: In acute toxicity studies, Swiss Albino mice were divided in to six groups of six animal each and DAT1 (12–50 mg/kg) was administered intraperitoneally (i.p) and observed for 14 days for signs of weight loss, dehydration or mortality. DAT1 was dissolved in vehicle cremaphor:ethanol (1:1) and diluted in 0.9 % saline.
Swiss Albino mice were divided into 6 groups of 6 mice each and were injected with either DAT1 or vehicle intraperitoneally. […] Group I: 12mg/kg, Group II: 20 mg/kg, Group III: 30 mg/kg, Group IV: 40 mg/kg, Group V: 50 mg/kg

DR5 = DR5 induction by western blotting; type: cell-based; details: cells with non functional p53 (HCT116 p53 −/−, SW620, SW480, HT29), ~1.5 X IC50
Method: as §2

Caco 2 = assay: MTT cytotoxicity assay; type: cell-based; details: Homo sapiens, Caco 2, 48 h
Method: as §1

Colo 320 DM [5] = assay: MTT cytotoxicity assay; type: cell-based; details: Homo sapiens, 48 h
Method: as §1

ERK = ERK activation by western blotting; type: cell-based
Method: as §2

HCT116 xenograft tumours = assay: Colon cancer xenograft study; type: in vivo, SCID/NOD mice
Method: (§4) SCID/NOD mice were divided into groups of ten and allowed to acclimatize. After 5 days, tumours were raised by injecting HCT116 or HCT116 p53 −/− cells (1.5 × 10^5 cells suspended in PBS) subcutaneously in the inner flank region. Once the tumour volumes reached 20–80 mm^3, drug was administered intraperitoneally, thrice a week at different concentrations.

[6] = system: HCT116 p53 −/− xenograft tumours; assay: Colon cancer xenograft study; type: in vivo, SCID/NOD mice
Method: as §4

Swiss Albino mice [7] = assay: Sub-acute toxicity study; type: in vivo; details: for RBC / WBC / ALP / ALT / AST / BUN / Creatinine: 3 months; for ALP / ALT / AST / BUN / Creatinine: serum
Method: In sub-acute toxicity studies, Swiss albino mice were divided into five groups of eight animals each. Three groups of Swiss Albino mice were administered (i.p injection) with 4, 8 or 16 mg/kg DAT1, and the control and vehicle control groups were administered with 0.9 % saline or vehicle respectively. Injections were given every alternate day for the first 10 days and after that, twice weekly for a period of 3 months. After 3 months animals were sacrificed and whole blood, liver and kidney were collected. Hematotoxicity was checked by RBC and WBC count. Hepatotoxicity was measured by monitoring the serum ALT and AST levels. Nephrotoxicity was measured by monitoring BUN and creatinine levels in the serum. ALP activity was measured for detection of liver or bone toxicity.

SMILES: O=c1[nH]cc(F)c(=O)[nH]1 [5 fluoro uracil, 5-fluorouracil]
- IC50 (HCT116 [1]): 8690 ± 540 nM
- IC50 (HCT116 p53 -/-): 19300 ± 1340 nM
- IC50 (SW 480): 18600 ± 680 nM
- IC50 (HT 29): 20200 ± 770 nM
- IC50 (SW 620): 9650 ± 330 nM

SMILES: COc1ccc(Nc2nc(N)c(C(=O)c3ccccc3)s2)cc1 [DAT1, 4-Amino-5-benzoyl-2-(4-methoxyphenylamino)thiazole]
- caspase 8 activation (caspase 8): caused caspase 8 activation
- percentage of apoptotic cells (HCT116 [2]; HCT116, DAT1 alone, 24 h): 67%
- percentage of apoptotic cells (HCT116 [2]; HCT116, DAT1 in the presence of MEK inhibitor U0126): 3%
- apoptosis (chromosome condensation) (Colo 320 DM [3]): 38%
- apoptosis (chromosome condensation) (Caco2): 32%
- percentage of apoptotic cells (HCT116 p53 −/−; DAT1 alone, 24 h): 60%
- percentage of apoptotic cells (HCT116 p53 −/−; DAT1 in the presence of MEK inhibitor U0126): 5%
- Final weight (Swiss Albino mice [4]; 12 mg/kg i.p.): 33.1 ± 1.56 g
- Initial weight (Swiss Albino mice [4]; 12 mg/kg i.p.): 32.4 ± 1.34 g
- Final weight (Swiss Albino mice [4]; 20 mg/kg i.p.): 33.46 ± 3.87 g
- Initial weight (Swiss Albino mice [4]; 20 mg/kg i.p.): 32.8 ± 5.44 g
- Final weight (Swiss Albino mice [4]; 30 mg/kg i.p.): 29.86 ± 2.82 g
- Initial weight (Swiss Albino mice [4]; 30 mg/kg i.p.): 27.2 ± 1.22 g
- Final weight (Swiss Albino mice [4]; 40 mg/kg i.p.): 27.8 ± 2.67 g
- Initial weight (Swiss Albino mice [4]; 40 mg/kg i.p.): 26.6 ± 2.4 g
- Final weight (Swiss Albino mice [4]; 50 mg/kg i.p.): 26.12 ± 2.14 g
- Initial weight (Swiss Albino mice [4]; 50 mg/kg i.p.): 25.6 ± 2.03 g
- DR5 upregulation (DR5): caused DR5 upregulation
- IC50 (HCT116 [1]): 300 ± 80 nM
- IC50 (Caco 2): 5320 ± 162 nM
- IC50 (HCT116 p53 -/-): 709 ± 80 nM
- IC50 (Colo 320 DM [5]): 655 ± 48 nM
- IC50 (SW 480): 795 ± 90 nM
- IC50 (HT 29): 200 ± 80 nM
- IC50 (SW 620): 420 ± 70 nM
- ERK activation (ERK; Colo 320 DM or Caco2 cell lines with wild type Ras or Raf, ~1.5 times IC50): unable to activate ERK
- P-ERK activation (ERK; HCT116 and HCT116 p53−/− cells): caused P-ERK activation
- tumour inhibition (HCT116 xenograft tumours; HCT116 tumours, 20 mg/kg i.p., thrice a week, 28 days): 72.3%
- mean tumour volume (HCT116 xenograft tumours; HCT116 xenograft, treatment for 28 days, i.p.): reduced the mean tumour volume effectively in a concentration dependent way
- reduction in tumour inhibition vs parental HCT116 ([6]; 20 mg/kg): about 19%
- tumour inhibition ([6]; HCT116 p53 −/− tumours, 20 mg/kg i.p., thrice a week, 28 days): 53.4%
- mean tumour volume ([6]; HCT116 p53−/− xenograft, treatment for 28 days, i.p.): reduced the mean tumour volume effectively in a concentration dependent way
- RBC (Swiss Albino mice [7]; 4 mg/kg i.p.): 4.42 ± 0.75 million/mm^3
- WBC (Swiss Albino mice [7]; 4 mg/kg i.p.): 8100 ± 1979 per mm^3
- ALP (Swiss Albino mice [7]; 4 mg/kg i.p.): 158.32 ± 8.32 U/L
- ALT (Swiss Albino mice [7]; 4 mg/kg i.p.): 54.38 ± 4.15 U/L
- AST (Swiss Albino mice [7]; 4 mg/kg i.p.): 128 ± 25.1 U/L
- BUN (Swiss Albino mice [7]; 4 mg/kg i.p.): 29.8 ± 1.25 mg/dL
- Creatinine (Swiss Albino mice [7]; 4 mg/kg i.p.): 0.82 ± 0.1 mg/dL
- RBC (Swiss Albino mice [7]; 8 mg/kg i.p.): 4.48 ± 0.34 million/mm^3
- WBC (Swiss Albino mice [7]; 8 mg/kg i.p.): 6220 ± 1626.34 per mm^3
- ALP (Swiss Albino mice [7]; 8 mg/kg i.p.): 136.48 ± 10.69 U/L
- ALT (Swiss Albino mice [7]; 8 mg/kg i.p.): 53.845 ± 4.81 U/L
- AST (Swiss Albino mice [7]; 8 mg/kg i.p.): 128.165 ± 1.87 U/L
- Creatinine (Swiss Albino mice [7]; 8 mg/kg i.p.): 0.76 ± 0.07 mg/dL
- RBC (Swiss Albino mice [7]; 16 mg/kg i.p.): 4.475 ± 0.26 million/mm^3
- WBC (Swiss Albino mice [7]; 16 mg/kg i.p.): 4550 ± 264.575 per mm^3
- ALP (Swiss Albino mice [7]; 16 mg/kg i.p.): 155.61 ± 15.15 U/L
- ALT (Swiss Albino mice [7]; 16 mg/kg i.p.): 148.39 ± 14.55 U/L
- AST (Swiss Albino mice [7]; 16 mg/kg i.p.): 162.67 ± 12.73 U/L
- BUN (Swiss Albino mice [7]; 16 mg/kg i.p.): 29.8 ± 1.27 mg/dL
- Creatinine (Swiss Albino mice [7]; 16 mg/kg i.p.): 0.58 ± 0.09 mg/dL
- body weight change (Swiss Albino mice [7]; 4, 8 or 16 mg/kg i.p., end of 3 months): no significant change in the weight

SMILES: CC(=O)O[C@H]1C(=O)[C@@]2(C)[C@H]([C@H](OC(=O)c3ccccc3)[C@]3(O)C[C@H](OC(=O)[C@H](O)[C@@H](NC(=O)c4ccccc4)c4ccccc4)C(C)=C1C3(C)C)[C@]1(OC(C)=O)CO[C@@H]1C[C@@H]2O [Taxol, paclitaxel]
- IC50 (HCT116 [1]): 14 ± 7 nM
- IC50 (HCT116 p53 -/-): 6 ± 2 nM
- IC50 (SW 480): 31.5 ± 1.4 nM
- IC50 (HT 29): 10 ± 1.4 nM
- IC50 (SW 620): 24.5 ± 6 nM

SMILES: CC[C@]1(O)C[C@@H]2CN(CCc3c([nH]c4ccccc34)[C@@](C(=O)OC)(c3cc4c(cc3OC)N(C)[C@H]3[C@@](O)(C(=O)OC)[C@H](OC(C)=O)[C@]5(CC)C=CCN6CC[C@]43[C@@H]65)C2)C1 [Vinblastine]
- apoptosis induction (HCT116 [2]; HCT116 p53 wild type, 0.01 μM, 24 h): large apoptotic response
- apoptosis induction (HCT116 p53 −/−; 0.01 μM, 24 h): failed to induce apoptosis
- IC50 (HCT116 [1]): 4 ± 2 nM
- IC50 (HCT116 p53 -/-): 19.5 ± 0.7 nM
- IC50 (SW 480): 3380 ± 247 nM
- IC50 (HT 29): 1.5 ± 0.7 nM
- IC50 (SW 620): 300 ± 90 nM
